According to patent US11497813B2, “Bortezomib conjugates and methods using same” (Frank EBETINO et al., priority 2015, dated 2022):
Entries after “also recorded” stand apart in the source; their conditions may differ.

What was measured:
5TGM1-GFP myeloma cells = experiment: Multiple myeloma model, 5TGM1-GFP myeloma cells in NIH-III nude mice; assay type: in vivo, mouse
Text: FIG. 25A depicts the groups and treatment used in the experimental examples. FIG. 25B depicts a table of clinical observations. FIG. 25C depicts images of GFP imaging showing the distribution of myeloma cells. FIG. 25D is a table of experimental data showing blood IgG2b levels. FIG. 25E is a table of experimental data showing osteoblast differentiation.
A MM model was generated using tail vein injection of 5TGM1-GFP myeloma cells into 6-week-old female NIH-III nude mice. Tumor burden and bone volume were examined.

Ub-proteins = experiment: Duration of ubiquitinization effect (FIG. 18); conditions: compared with Btz
fractured mice = experiment: Open tibial fracture healing in WT mice; assay type: in vivo, mouse
Description: WT mice that received an open tibial fracture were treated with Btz (0.6 mg/kg body weight, ip) or vehicle at day 1, 3, 5, 7, and sacrificed at various days post-fracture. FIG. 2A is an image of the structure of Bortezomib. FIG. 2B is a graph depicting μCT data analyses of callus size from 10 days post-fracture. N+4 mice/group. FIG. 2C is a series of images of representative histology of fractured tibiae stained with alcian blue hematoxylin/orange G eosin showing cartilage (blue) and bone (pink) formation. Histomorphometric measurements were performed with a Visiopharm Imaging Analysis software system. N=3 mice/group. FIG. 2D is a series of graphs depicting data of biomechanical testing of tibiae from 28 days after fracture. N=5 mice/group. FIG. 2E is a series of images of spectra depicting data of immune-phenotyping of callus cells from 7 days post-fracture. FIG. 2F is a series of images of immunoblots depicting protein expression levels of total Ub-proteins and JunB and Runx2 levels in calluses from 10 days post-fracture. *p<0.05 vs. vehicle group.

fractured aged mice = experiment: Tibial fracture healing in aged (20-m-old) mice; assay type: in vivo, mouse
Description: 20-m-old B6 mice had tibial fractures and were given Btz (0.6 mg/kg body weight, i.p.) or saline (Ctl) at day 1, 3, and 5 post-fracture 3 times. FIG. 8A is a graph depicting callus volumes for mice subjected to μCT at day 28. FIG. 8B is a graph depicting experimental data from mice subjected to bio-mechanical testing at day 28. FIG. 8C is a graph depicting experimental data of mice sacrificed for histological analyses at day 28. Values are the mean of 6 mice. *P<0.05 vs. saline-treated mice. FIG. 8D is a graph of data from 3-m-old (young) and 20-m-old (aged) mice after tibial fracture surgery and sacrificed at day 14 post-fracture. The % of CD45^−CD105^+Sca-1^+ cells in fracture callus were determined by flow cytometry as depicted in FIG. 7B. Values are the mean of 4 mice. *P<0.05 vs. saline-treated aged mice. #P<0.05 vs. young mice.

[1] = myeloma mice, compared with Btz

Row | SMILES | peripheral blood platelet and cell numbers (blood counts) (5TGM1-GFP myeloma cells; FIG. 27, compared with Btz) | osteoblast colonies from bone marrow cells (5TGM1-GFP myeloma cells; bone marrow cells from treated myeloma mice) | myeloma-induced bone loss (5TGM1-GFP myeloma cells; [1]) | tumor burden (5TGM1-GFP myeloma cells; [1]) | ubiquitinization effect (Ub-proteins) | expression of osteoblast positive regulators (fractured mice; 0.6 mg/kg ip day 1, 3, 5, 7, JunB and Runx2 in calluses) | MSC numbers (fractured mice; 0.6 mg/kg ip day 1, 3, 5, 7, callus cells) | Nestin+ MPCs (fractured mice; fractured mice) | bone strength (fractured mice; fractured mice) | callus formation (fractured mice; fractured mice) | Ub-proteins in fracture calluses (fractured mice; short-term treatment) | fracture healing (fractured mice; short-term treatment) | fracture repair (fractured aged mice; 20-m-old B6 mice, 0.6 mg/kg i.p. day 1, 3, 5) | MPCs (fractured aged mice; fractured aged mice) | bone strength (fractured aged mice; fractured aged mice) | callus formation (fractured aged mice; fractured aged mice)
1 | CC(C)C[C@H](NC(=O)[C@H](Cc1ccccc1)NC(=O)c1cnccn1)B1OCCN(CCOC(=O)NC(P(=O)(O)O)P(=O)(O)O)CCO1 [BP-Btz1] | less deleterious effects than Btz; also recorded: reduces side effects on blood counts compared with Btz | form more osteoblast colonies | reduces tumor burden and myeloma-induced bone loss more effectively than Btz; also recorded: prevents myeloma-induced bone loss more effectively than Btz | reduces tumor burden and myeloma-induced bone loss more effectively than Btz | more sustained ubiquitinization effect than Btz | – | – | – | – | – | – | – | – | – | – | –
2 | CC(C)C[C@H](NC(=O)[C@H](Cc1ccccc1)NC(=O)c1cnccn1)B(O)O [Btz, [(1R)-3-methyl-1-[[(2S)-1-oxo-3-phenyl-2[(pyrazinylcarbonyl)amino]propyl]amino]butyl] boronic acid] | – | – | – | – | – | increases | increases | increased | increases bone strength | accelerates callus formation | accumulation of Ub-proteins | increases fracture healing | promotes fracture repair | increased | increased | increased
